# Experimental data from US20110028345A1, “METHODS TO CHARACTERIZE CELL REPROGRAMMING AND USES THEREOF” (CORNING INCORPORATED, priority 2009, published 2011).
# Ends that are not written are not given here.
# Experiments:
# [1] = test system: differentiated ReNcell cells (endogenous dopamine receptors); test: Epic RWG biosensor DMR assay on the neuronal cell system differentiated from ReNcell VM; format: cell-based, human; conditions: for DMR signal upon stimulation: differentiated ReNcell cells, PD128907 and A68930 16 micromolar, dopamine 128 micromolar (FIG. 7A-C); for receptor to which the DMR signal is attributed: same doses as FIG. 7A-C
# Method: For cell assay on Epic, undifferentiated cells were typically seeded using ˜3×10^3 cells per well in 50 μl of the corresponding culture medium in the biosensor microplate freshly coated with laminin, and were cultured at 37° C. under air/5% CO2. […] The medium was replaced with fresh ReNcell NSC Maintenance Medium every 2-3 days for 10 days. The confluency for all cells at the time of assays was ˜95% to 100%.
# (§1) For biosensor cellular assays, compound solutions were made by diluting the stored concentrated solutions with the HBSS (1× Hanks balanced salt solution, plus 20 mM Hepes, pH 7.1), and transferred into a 384 well polypropylene compound storage plate to prepare a compound source plate. […] Afterwards, a 2 to 10 min continuous recording was carried out to establish a baseline, and to ensure that the cells reached a steady state.
# [2] = test system: undifferentiated and differentiated ReN cells; test: DMR marker panel profiling, differentiated versus undifferentiated ReN cells; format: cell-based, human; conditions: markers at 10 μM (dopamine and glucagons like peptide 128 μM); FIG. 9-11
# Method: The confluency for all cells at the time of assays was ˜95% to 100%.
# as §1
# ReNcell progenitor cells = conditions: 128 micromolar
# Method: Afterwards, a 2 to 10 min continuous recording was carried out to establish a baseline, and to ensure that the cells reached a steady state. Cellular responses were then triggered by transferring 10 μl of the compound solutions into the cell assay plate using the on-board liquid handler.
# Epic® wavelength interrogation system (Corning Inc., Corning, N.Y.) was used for whole cell sensing. This system consists of a temperature-control unit, an optical detection unit, and an on-board liquid handling unit with robotics. The detection unit is centered on integrated fiber optics, and enables kinetic measures of cellular responses with a time interval of ˜15 sec. The compound solutions were introduced by using the on-board liquid handling unit (i.e., pippetting).
# For biosensor cellular assays, compound solutions were made by diluting the stored concentrated solutions with the HBSS (1× Hanks balanced salt solution, plus 20 mM Hepes, pH 7.1), and transferred into a 384 well polypropylene compound storage plate to prepare a compound source plate. Two compound source plates were made separately when a two-step assay was performed. […] Both the cell assay plate and the compound source plate(s) were then incubated in the hotel of the reader system. After incubation the baseline wavelengths of all biosensors in the cell assay microplate were recorded and normalized to zero. […]
# quiescent A431 cells = test: Modulation of marker-induced biosensor (DMR) responses in quiescent A431 cells; format: cell-based
# Description: (§2) A “modulation profile” or like terms is the comparison between a secondary profile of the marker in the presence of a molecule and the primary profile of the marker in the absence of any molecule. The comparison can be by, for example, subtracting the primary profile from secondary profile or subtracting the secondary profile from the primary profile or normalizing the secondary profile against the primary profile.
# (§3) A “molecule modulation index” or like terms is an index to display the ability of the molecule to modulate the biosensor output signals of the panels of markers acting on the panel of cells. The modulation index is generated by normalizing a specific biosensor output signal parameter of a response of a cell upon stimulation with a marker in the presence of a molecule against that in the absence of any molecule.
# (§4) Alternatively, different scores can be given for a type of modulation but with different scales. For example, a positive modulation of 10%, 20%, 30%, 40%, 50%, 60%, 100%, 200%, etc, can be given a score of +1, +2, +3, +4, +5, +6, +10, +20, correspondingly. Conversely, for negative modulation, similar but in opposite score can be given. […] Thus, the score of HA1077 modulation index in coordination can be assigned as (0, 0.5, −0.6, 0, −2.3, 0.6, 0, −6.8, 0.4, −3.6, −0.5, −1.6). Once a molecular index is generated, the molecular index can be compared with a library of known modulators to determine the mode(s) of action of the molecule of interest. […] Beside its indicative power of a DMR index for pharmacology of a molecule, a molecule DMR index can also be used to distinguish the cellular background of different types of cells.
# A549 cell = test: Modulation of marker-induced biosensor (DMR) responses in A549 cell; format: cell-based
# Description: as §2, §3, §4
compound,measurement,setting,value
NC[C@@H]1O[C@H](c2ccccc2)Cc2c1ccc(O)c2O [A68930],DMR signal upon stimulation,[1],small but reproducible DMR signal
same,receptor to which the DMR signal is attributed,[1]; differentiated cells,triggered a DMR signal specifically to the endogenous D1 receptor
Nc1ncnc2c1ncn2[C@@H]1O[C@H](COP(=O)(O)OP(=O)(O)O)[C@@H](O)[C@H]1O [ADP],specificity of the marker DMR signal for the differentiation state,[2],non-specific to both the undifferentiated and differentiated ReN cells
Nc1ncnc2c1ncn2[C@@H]1O[C@H](COP(=O)(O)OP(=O)(O)OP(=O)(O)O)[C@@H](O)[C@H]1O [ATP],specificity of the marker DMR signal for the differentiation state,[2],specific to the differentiated ReN cells
NCCCC(=O)O [GABA],specificity of the marker DMR signal for the differentiation state,[2],non-specific to both the undifferentiated and differentiated ReN cells
CCCN1CCO[C@@H]2c3cc(O)ccc3OC[C@H]21 [PD128907],DMR signal upon stimulation,[1],small but reproducible DMR signal
same,receptor to which the DMR signal is attributed,[1]; differentiated cells,activated another endogenous dopamine receptor (possibly D2 receptor)
O=c1ccn([C@@H]2O[C@H](COP(=O)(O)OP(=O)(O)O)[C@@H](O)[C@H]2O)c(=O)[nH]1 [UDP],specificity of the marker DMR signal for the differentiation state,[2],specific to the differentiated ReN cells
O=c1ccn([C@@H]2O[C@H](COP(=O)(O)OP(=O)(O)OP(=O)(O)O)[C@@H](O)[C@H]2O)c(=O)[nH]1 [UTP],specificity of the marker DMR signal for the differentiation state,[2],specific to the undifferentiated cells
Nc1ncnc2c1ncn2[C@@H]1O[C@H](CO)[C@@H](O)[C@H]1O [adenosine],specificity of the marker DMR signal for the differentiation state,[2],specific to the differentiated ReN cells
NCCc1ccc(O)c(O)c1 [dopamine],DMR signal 10 days after differentiation and maturation,"[1]; 128 micromolar, 10 days after differentiation (FIG. 8D)",distinct DMR signal which contains additional contributions from endogenous D1 receptors
same,dose dependence of the DMR signal,[1]; amplitudes 50 min after stimulation as a function of concentration (FIG. 7D),biphasic dose-dependent DMR signal
same,DMR signal upon stimulation,[1],small but reproducible DMR signal
same,DMR signal at high doses,"[1]; differentiated cells, high doses",close to the simple sum of both A68390 and PD129807 DMR signals
same,DMR signal at low doses,"[1]; differentiated cells, low doses (<4000 nM)",DMR signal similar to that induced by A68390
same,receptor to which the DMR signal is attributed,[1]; differentiated cells,can activate both D1 and D2 receptors
same,DMR signal 3 hr after attachment,ReNcell progenitor cells; 3 hr after attachment on laminin coated biosensor surface (FIG. 8B),small but reproduced DMR signal
same,DMR signal after 4 days undifferentiated culture,ReNcell progenitor cells; 4 days in growth factor rich medium (FIG. 8C),"distinct DMR signal (FIG. 8C), which was confirmed to be due to the activation of the endogenous D2 receptor"
same,specificity of the marker DMR signal for the differentiation state,[2],non-specific to both the undifferentiated and differentiated ReN cells
NCCCNCCCCNCCCN [spermine],specificity of the marker DMR signal for the differentiation state,[2],specific to the differentiated ReN cells
NCCc1ccc(O)cc1 [tyramine],specificity of the marker DMR signal for the differentiation state,[2],specific to the undifferentiated cells
N#CC(C#N)=C(N)/C(C#N)=C/c1cc(O)c(O)c(O)c1 [tyrphostin 51],mode of action concluded from the biosensor index,"quiescent A431 cells; EGFR inhibitor (EGF DMR in A431) and PDE4 inhibitor (epinephrine, histamine in A431; forskolin in A549)",displays polypharmacology
same,modulation of the EGF N-DMR,"quiescent A431 cells; quiescent A431 cells, marker EGF, N-DMR",−5%
same,modulation of the EGF P-DMR,"quiescent A431 cells; quiescent A431 cells, marker EGF, P-DMR",−36%
same,modulation of the biosensor response induced by epinephrine,"quiescent A431 cells; quiescent A431 cells, marker epinephrine",−68%
same,modulation of the biosensor response induced by histamine,"quiescent A431 cells; quiescent A431 cells, marker histamine",−16%
same,modulation of the biosensor response induced by nicotinic acid,"quiescent A431 cells; quiescent A431 cells, marker nicotinic acid",+4%
same,modulation of the biosensor response induced by PMA,A549 cell; marker PMA,−6%
same,modulation of the biosensor response induced by SLIGKV-amide,A549 cell; marker SLIGKV-amide,0%
same,modulation of the biosensor response induced by forskolin,A549 cell; marker forskolin,−23%
same,modulation of the histamine early response,"A549 cell; marker histamine, early response",+6%
same,modulation of the histamine late response,"A549 cell; marker histamine, late response",0%
same,modulation of the biosensor response induced by pinacidil,A549 cell; marker pinacidil,0%
same,modulation of the biosensor response induced by poly (I:C),A549 cell; marker poly (I:C),+5%
Neuropeptide Y,specificity of the marker DMR signal for the differentiation state,[2],specific to the differentiated ReN cells
SFLLR-amide,specificity of the marker DMR signal for the differentiation state,[2],specific to the differentiated ReN cells
"alpha-melanocyte-stimulating hormone (SYSMEHFRWGKPV; ends and bridges not checked; UniProt P01189 138-150, looked up) [MCH receptor agonist]",specificity of the marker DMR signal for the differentiation state,[2],non-specific to both the undifferentiated and differentiated ReN cells
"angiotensin II (DRVYIHPF; Angiotensin-2; UniProt P01019 25-32, looked up) [ATII receptor angiotensin II]",specificity of the marker DMR signal for the differentiation state,[2],specific to the undifferentiated cells
apelin,specificity of the marker DMR signal for the differentiation state,[2],non-specific to both the undifferentiated and differentiated ReN cells
"dynorphin A (YGGFLRRIRPKLKWDNQ; Dynorphin A(1-17); UniProt P01213 207-223, looked up) [opioid receptor agonist]",specificity of the marker DMR signal for the differentiation state,[2],specific to the differentiated ReN cells
"endothelin 1 (CSCSSLMDKECVYFCHLDIIW; ends and bridges not checked; cysteine pairing not given here; UniProt P05305 53-73, looked up) [endothelin receptor agonist]",specificity of the marker DMR signal for the differentiation state,[2],specific to the differentiated ReN cells
glucagons like peptide,specificity of the marker DMR signal for the differentiation state,[2],specific to the undifferentiated cells
lysophosphatidic acid,specificity of the marker DMR signal for the differentiation state,[2],specific to the undifferentiated cells
"neuropeptide B-23 (WYKPAAGHSSYSVGRAAGLLSGLR; ends and bridges not checked; UniProt Q8NG41 25-48, looked up) [GPR7 and 8 agonist]",specificity of the marker DMR signal for the differentiation state,[2],specific to the differentiated ReN cells
"orexin A (QPLPDCCRQKTCSCRLYELLHGAGNHAAGILTL; ends and bridges not checked; cysteine pairing not given here; UniProt O43612 34-66, looked up) [orexin receptor agonist]",specificity of the marker DMR signal for the differentiation state,[2],specific to the differentiated ReN cells
platelet growth factor,specificity of the marker DMR signal for the differentiation state,[2],non-specific to both the undifferentiated and differentiated ReN cells
"substance P (RPKPQQFFGLM; ends and bridges not checked; UniProt P20366 58-68, looked up) [NKA receptor agonist]",specificity of the marker DMR signal for the differentiation state,[2],specific to the undifferentiated cells
"vasoactive intestinal peptide (HSDAVFTDNYTRLRKQMAVKKYLNSILN; ends and bridges not checked; UniProt P01282 125-152, looked up) [VIP receptor agonist]",specificity of the marker DMR signal for the differentiation state,[2],specific to the differentiated ReN cells
